Broadly, the IC50 is the concentration at which inhibition is half-maximal. Read a high IC50 as lower potency.

The source of these data is ChEMBL document CHEMBL1144691, “Antiproliferative cassane diterpenoids of Cordyla madagascariensis ssp. madagascariensis from the Madagascar rainforest” (J Nat Prod, 2008).

The experiment concerns A2780. The experiment in a line: Antiproliferative activity against human A2780 cells. Format: functional, cell-based.
Regarding `CC(=O)OC[C@@]1(CO)CCC[C@]2(C)[C@H]3Cc4occc4[C@H](C)[C@@H]3C[C@@H](OC(C)=O)[C@@H]12` [CORDYLANE A], it took 10 µM to reach half-maximal inhibition (IC50).

Turning to `CC(=O)OC[C@]1(CO)CCC[C@]2(C)[C@H]3Cc4occc4[C@H](C)[C@@H]3C[C@@H](OC(C)=O)[C@@H]12` [CORDYLANE B], the IC50 was determined as 36 µM.

Compound `C[C@H]1c2ccoc2C[C@H]2[C@H]1CC[C@H]1[C@@](CO)(C(=O)O)CCC[C@]21C` [CORDYLANE C] returned an IC50 above 60 µM.

`C=C1c2ccoc2C[C@H]2[C@H]1CC[C@H]1[C@@](CO)(C(=O)O)CCC[C@]21C` [CORDYLANE D]: the half-inhibitory concentration (IC50) was above 60 µM.
